# Columns and labels:
# Assay in all cases: viability relative to DMSO control (fraction); higher = less drug effect (more viable cells)
# Details in all cases: 48 h
# Imatinib = compound: Cc1ccc(NC(=O)c2ccc(CN3CCN(C)CC3)cc2)cc1Nc1nccc(-c2cccnc2)n1 [Imatinib]
# Procedure, shortened: (§1)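 Viability was measured as CellTiter-Glo luminescence relative to the median of 16 inner DMSO wells. Primary mononuclear tumour cells, fresh or cryopreserved, were Ficoll-isolated from blood or bone marrow or taken from processed lymph node. They were seeded at 4 × 10^4 cells per well into 384-well plates holding pre-plated compounds at five concentrations, one well each, and kept in RPMI-1640 with penicillin/streptomycin, L-glutamine and human serum at 37 °C and 5% CO2 for 48 h.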
# BI6727 = compound: CC[C@@H]1C(=O)N(C)c2cnc(Nc3ccc(C(=O)N[C@H]4CC[C@H](N5CCN(CC6CC6)CC5)CC4)cc3OC)nc2N1C(C)C [BI6727]
# Procedure, shortened: as §1
# Panobinostat = compound: Cc1[nH]c2ccccc2c1CCNCc1ccc(/C=C/C(=O)NO)cc1 [Panobinostat]
# Procedure, shortened: as §1
# Vincristine = compound: CC[C@]1(O)C[C@H]2CN(CCc3c([nH]c4ccccc34)[C@@](C(=O)OC)(c3cc4c(cc3OC)N(C=O)[C@H]3[C@@](O)(C(=O)OC)[C@H](OC(C)=O)[C@]5(CC)C=CCN6CC[C@]43[C@@H]65)C2)C1 [Vincristine]
# Procedure, shortened: as §1
# [1] = compound: CC(C)(C)OC(=O)Nc1ccc(-c2cc(C(=O)NCCCCCCC(=O)NO)no2)cc1
# Procedure, shortened: as §1
# Quizartinib = compound: CC(C)(C)c1cc(NC(=O)Nc2ccc(-c3cn4c(n3)sc3cc(OCCN5CCOCC5)ccc34)cc2)no1 [Quizartinib]
# Procedure, shortened: as §1
# Bortezomib = compound: CC(C)C[C@H](NC(=O)[C@H](Cc1ccccc1)NC(=O)c1cnccn1)B(O)O [Bortezomib]
# Procedure, shortened: as §1
# Carfilzomib = compound: CC(C)C[C@H](NC(=O)[C@H](CCc1ccccc1)NC(=O)CN1CCOCC1)C(=O)N[C@@H](Cc1ccccc1)C(=O)N[C@@H](CC(C)C)C(=O)[C@@]1(C)CO1 [Carfilzomib]
# Procedure, shortened: as §1
# Pentostatin = compound: OC[C@H]1O[C@@H](n2cnc3c2N=CNC[C@H]3O)C[C@@H]1O [Pentostatin]
# Procedure, shortened: as §1
# Idarubicin = compound: CC(=O)[C@]1(O)Cc2c(O)c3c(c(O)c2[C@@H](O[C@H]2C[C@H](N)[C@H](O)[C@H](C)O2)C1)C(=O)c1ccccc1C3=O [Idarubicin]
# Procedure, shortened: as §1
# Vemurafenib = compound: CCCS(=O)(=O)Nc1ccc(F)c(C(=O)c2c[nH]c3ncc(-c4ccc(Cl)cc4)cc23)c1F [Vemurafenib]
# Procedure, shortened: as §1
# TMP269 = compound: O=C(NCC1(c2nc(-c3ccccc3)cs2)CCOCC1)c1cccc(-c2noc(C(F)(F)F)n2)c1 [TMP269]
# Procedure, shortened: as §1
# Nelarabine = compound: COc1nc(N)nc2c1ncn2[C@@H]1O[C@H](CO)[C@@H](O)[C@@H]1O [Nelarabine]
# Procedure, shortened: as §1
# Rigosertib = compound: COc1cc(OC)c(/C=C/S(=O)(=O)Cc2ccc(OC)c(NCC(=O)O)c2)c(OC)c1 [Rigosertib]
# Procedure, shortened: as §1
test system,measurement,setting,value
primary ALL patient cells (S048),viability,Imatinib; 0.016 µM,1.08
same,viability,Imatinib; 0.08 µM,1.08
same,viability,Imatinib; 2 µM,1.13
same,viability,Imatinib; 10 µM,1.17
same,viability,BI6727; 0.024 µM,0.866
same,viability,BI6727; 0.12 µM,0.979
same,viability,BI6727; 0.6 µM,0.908
same,viability,BI6727; 3 µM,0.484
same,viability,BI6727; 15 µM,0.138
same,viability,Panobinostat; 0.00064 µM,0.516
same,viability,Panobinostat; 0.0032 µM,0.145
same,viability,Panobinostat; 0.016 µM,0.0582
same,viability,Panobinostat; 0.08 µM,0.074
same,viability,Panobinostat; 0.4 µM,0.0593
same,viability,Vincristine; 0.016 µM,0.293
same,viability,Vincristine; 0.08 µM,0.151
same,viability,Vincristine; 0.4 µM,0.0999
same,viability,Vincristine; 2 µM,0.0818
same,viability,Vincristine; 10 µM,0.0695
same,viability,[1]; 0.024 µM,0.479
same,viability,[1]; 0.12 µM,0.287
same,viability,[1]; 0.6 µM,0.104
same,viability,[1]; 3 µM,0.0485
same,viability,[1]; 15 µM,0.0165
same,viability,Quizartinib; 0.016 µM,0.872
same,viability,Quizartinib; 0.08 µM,0.82
same,viability,Quizartinib; 0.4 µM,0.877
same,viability,Quizartinib; 2 µM,0.784
same,viability,Quizartinib; 10 µM,0.792
same,viability,Bortezomib; 0.008 µM,0.869
same,viability,Bortezomib; 0.04 µM,0.969
same,viability,Bortezomib; 0.2 µM,0.895
same,viability,Bortezomib; 1 µM,0.96
same,viability,Bortezomib; 5 µM,0.887
same,viability,Carfilzomib; 0.00016 µM,0.718
same,viability,Carfilzomib; 0.0008 µM,0.0489
same,viability,Carfilzomib; 0.004 µM,0.014
same,viability,Carfilzomib; 0.02 µM,0.0161
same,viability,Carfilzomib; 0.1 µM,0.0184
same,viability,Pentostatin; 0.03 µM,1.1
same,viability,Pentostatin; 0.15 µM,1
same,viability,Pentostatin; 0.75 µM,1.04
same,viability,Pentostatin; 3.75 µM,0.891
same,viability,Pentostatin; 18.76 µM,0.851
same,viability,Idarubicin; 0.024 µM,0.171
same,viability,Idarubicin; 0.12 µM,0.0644
same,viability,Idarubicin; 0.6 µM,0.0177
same,viability,Idarubicin; 3 µM,0.0135
same,viability,Idarubicin; 15 µM,0.0126
same,viability,Vemurafenib; 0.024 µM,0.967
same,viability,Vemurafenib; 0.12 µM,1.05
same,viability,Vemurafenib; 0.6 µM,0.931
same,viability,Vemurafenib; 3 µM,1.04
same,viability,Vemurafenib; 15 µM,1.29
same,viability,TMP269; 0.024 µM,0.62
same,viability,TMP269; 0.12 µM,0.647
same,viability,TMP269; 0.6 µM,0.668
same,viability,TMP269; 3 µM,0.593
same,viability,TMP269; 15 µM,0.576
same,viability,Nelarabine; 0.024 µM,1.03
same,viability,Nelarabine; 0.12 µM,1.04
same,viability,Nelarabine; 0.6 µM,0.927
same,viability,Nelarabine; 3 µM,0.82
same,viability,Nelarabine; 15 µM,0.587
same,viability,Rigosertib; 0.008 µM,0.879
same,viability,Rigosertib; 0.04 µM,0.925
same,viability,Rigosertib; 0.2 µM,0.84
same,viability,Rigosertib; 1 µM,0.712
same,viability,Rigosertib; 5 µM,0.314
primary ALL patient cells (S088),viability,Imatinib; 0.016 µM,1.08
same,viability,Imatinib; 0.4 µM,1.04
same,viability,Imatinib; 10 µM,1.24
same,viability,BI6727; 0.024 µM,0.796
same,viability,BI6727; 0.12 µM,0.833
same,viability,BI6727; 0.6 µM,0.634
same,viability,BI6727; 3 µM,0.358
same,viability,BI6727; 15 µM,0.078
same,viability,Panobinostat; 0.00064 µM,0.699
same,viability,Panobinostat; 0.0032 µM,0.266
same,viability,Panobinostat; 0.016 µM,0.115
same,viability,Panobinostat; 0.08 µM,0.0993
same,viability,Panobinostat; 0.4 µM,0.0891
same,viability,Vincristine; 0.016 µM,0.689
same,viability,Vincristine; 0.08 µM,0.494
same,viability,Vincristine; 0.4 µM,0.335
same,viability,Vincristine; 2 µM,0.302
same,viability,Vincristine; 10 µM,0.256
same,viability,[1]; 0.024 µM,0.612
same,viability,[1]; 0.12 µM,0.528
same,viability,[1]; 0.6 µM,0.264
same,viability,[1]; 3 µM,0.127
same,viability,[1]; 15 µM,0.063
same,viability,Quizartinib; 0.016 µM,0.809
same,viability,Quizartinib; 0.08 µM,0.765
same,viability,Quizartinib; 0.4 µM,0.775
same,viability,Quizartinib; 2 µM,0.741
same,viability,Quizartinib; 10 µM,0.676
same,viability,Bortezomib; 0.008 µM,1.02
same,viability,Bortezomib; 0.04 µM,0.948
same,viability,Bortezomib; 0.2 µM,0.906
same,viability,Bortezomib; 1 µM,0.92
same,viability,Bortezomib; 5 µM,0.916
same,viability,Carfilzomib; 0.00016 µM,0.844
same,viability,Carfilzomib; 0.0008 µM,0.348
same,viability,Carfilzomib; 0.004 µM,0.0398
same,viability,Carfilzomib; 0.02 µM,0.0238
same,viability,Carfilzomib; 0.1 µM,0.0318
same,viability,Pentostatin; 0.03 µM,0.809
same,viability,Pentostatin; 0.15 µM,0.725
same,viability,Pentostatin; 0.75 µM,0.786
same,viability,Pentostatin; 3.75 µM,0.669
same,viability,Pentostatin; 18.76 µM,0.706
same,viability,Idarubicin; 0.024 µM,0.341
same,viability,Idarubicin; 0.12 µM,0.0818
same,viability,Idarubicin; 0.6 µM,0.0274
same,viability,Idarubicin; 3 µM,0.0177
same,viability,Idarubicin; 15 µM,0.0163
same,viability,Vemurafenib; 0.024 µM,0.986
same,viability,Vemurafenib; 0.12 µM,0.933
same,viability,Vemurafenib; 0.6 µM,1.08
same,viability,Vemurafenib; 3 µM,1.43
same,viability,Vemurafenib; 15 µM,1.78
same,viability,TMP269; 0.024 µM,0.709
same,viability,TMP269; 0.12 µM,0.619
same,viability,TMP269; 0.6 µM,0.674
same,viability,TMP269; 3 µM,0.674
same,viability,TMP269; 15 µM,0.729
same,viability,Nelarabine; 0.024 µM,0.974
same,viability,Nelarabine; 0.12 µM,0.98
same,viability,Nelarabine; 0.6 µM,0.967
same,viability,Nelarabine; 3 µM,0.886
same,viability,Nelarabine; 15 µM,0.75
same,viability,Rigosertib; 0.008 µM,0.756
same,viability,Rigosertib; 0.04 µM,0.78
same,viability,Rigosertib; 0.2 µM,0.778
same,viability,Rigosertib; 1 µM,0.806
same,viability,Rigosertib; 5 µM,0.461
primary AML patient cells (S002),viability,Imatinib; 0.08 µM,1
same,viability,Imatinib; 0.4 µM,1.1
same,viability,Imatinib; 2 µM,1.17
same,viability,Imatinib; 10 µM,1.26
same,viability,BI6727; 0.024 µM,0.839
same,viability,BI6727; 0.12 µM,0.702
same,viability,BI6727; 0.6 µM,0.553
same,viability,BI6727; 3 µM,0.343
same,viability,BI6727; 15 µM,0.263
same,viability,Panobinostat; 0.00064 µM,1.1
same,viability,Panobinostat; 0.0032 µM,0.723
same,viability,Panobinostat; 0.016 µM,0.282
same,viability,Panobinostat; 0.08 µM,0.318
same,viability,Panobinostat; 0.4 µM,0.242
same,viability,Vincristine; 0.016 µM,1.11
same,viability,Vincristine; 0.08 µM,1.18
same,viability,Vincristine; 0.4 µM,1.14
same,viability,Vincristine; 2 µM,0.99
same,viability,Vincristine; 10 µM,0.961
same,viability,[1]; 0.024 µM,1.04
same,viability,[1]; 0.12 µM,0.659
same,viability,[1]; 0.6 µM,0.419
same,viability,[1]; 3 µM,0.307
same,viability,[1]; 15 µM,0.272
same,viability,Quizartinib; 0.016 µM,1.11
same,viability,Quizartinib; 0.08 µM,1.07
same,viability,Quizartinib; 0.4 µM,1.06
same,viability,Quizartinib; 2 µM,1.18
same,viability,Quizartinib; 10 µM,1.07
same,viability,Bortezomib; 0.008 µM,0.958
same,viability,Bortezomib; 0.04 µM,1.03
same,viability,Bortezomib; 0.2 µM,0.959
same,viability,Bortezomib; 1 µM,0.953
same,viability,Bortezomib; 5 µM,0.986
same,viability,Carfilzomib; 0.00016 µM,0.941
same,viability,Carfilzomib; 0.0008 µM,0.633
same,viability,Carfilzomib; 0.004 µM,0.195
same,viability,Carfilzomib; 0.02 µM,0.0988
same,viability,Carfilzomib; 0.1 µM,0.0663
same,viability,Pentostatin; 0.03 µM,0.785
same,viability,Pentostatin; 0.15 µM,0.701
same,viability,Pentostatin; 0.75 µM,1.08
same,viability,Pentostatin; 3.75 µM,0.835
same,viability,Pentostatin; 18.76 µM,1.07
same,viability,Idarubicin; 0.024 µM,0.332
same,viability,Idarubicin; 0.12 µM,0.303
same,viability,Idarubicin; 0.6 µM,0.267
same,viability,Idarubicin; 3 µM,0.217
same,viability,Idarubicin; 15 µM,0.165
same,viability,Vemurafenib; 0.024 µM,0.807
same,viability,Vemurafenib; 0.12 µM,1.15
same,viability,Vemurafenib; 0.6 µM,0.924
same,viability,Vemurafenib; 3 µM,1.43
same,viability,Vemurafenib; 15 µM,1.68
same,viability,TMP269; 0.024 µM,0.995
same,viability,TMP269; 0.12 µM,1.03
same,viability,TMP269; 0.6 µM,1.02
same,viability,TMP269; 3 µM,0.83
same,viability,TMP269; 15 µM,0.747
same,viability,Nelarabine; 0.024 µM,1.07
same,viability,Nelarabine; 0.12 µM,0.999
same,viability,Nelarabine; 0.6 µM,0.946
same,viability,Nelarabine; 3 µM,0.961
same,viability,Nelarabine; 15 µM,0.779
same,viability,Rigosertib; 0.008 µM,0.949
same,viability,Rigosertib; 0.04 µM,0.952
same,viability,Rigosertib; 0.2 µM,0.943
same,viability,Rigosertib; 1 µM,0.803
same,viability,Rigosertib; 5 µM,1.02
